Read-outs that look alike come from different tables or passages of the source.
How the values were obtained:
A549 cell line [1] = assay: LDH cytotoxicity assay; type: cell-based
Procedure: 30 minutes after LDH (Abcam Cat# ab65393) administration, optical density at a wavelength of 450 nm was measured using a microplate reader (Hidex plate reader) to quantify the relative LDH activity which was released into the media via the drug's cytotoxic effect.

A549 cell line [2] = assay: cells; type: cell-based; details: Homo sapiens
Procedure: A549 cells were obtained from ATCC and cultured with culture medium (D0819 DMEM 10% FBS 1% penicillin/streptomycin) at 37°C. Cell viability was measured using an MTT assay. MTT ((3-[4,5-dimethylthiazol-2-yl]-2,5-diphenyltetrazolium bromide) (1x), at 5 mg/ml) was added for 1 hour and formazan was dissolved with DMSO (dimethyl sulfoxide). Optical density at a wavelength of 570 nm was measured using a microplate reader (Hidex plate reader) to quantify the relative number of living cells. To determine treatment concentrations, cells were treated with serially diluted drugs until a concentration that reduced cell viability by around 50%. […] Cells were treated with the drugs at their designated concentrations for two days.

TTK = assay: Western blot of TTK protein expression in A549 cells after drug treatment; type: cell-based; details: A549, 10µM
Procedure: PVDF membranes were blocked for 30 minutes with 5% skim milk and TBST (Tris Buffered Saline with 0.2% Tween 20) and then treated overnight on a shaker plate at 4°C with 0.5% skim milk with TBST and MCM6 (Abcam Cat# ab201683) and TTK (Abcam Cat# ab187520) primary antibodies diluted 1:20000 and for 30 minutes with TUBA1A (Abeam Cat# ab7291, RRID:AB_2241126) primary antibodies diluted 1:20000. The solution was then replaced with a new solution of 0.5% skim milk with TBST and anti-rabbit (Abeam Cat# ab6721, RRID:AB_955447) or anti-mouse (Abeam Cat# ab6789, RRID:AB_955439) secondary antibodies diluted 1:20000 for 30 minutes.

MCM6 = assay: Western blot of MCM6 protein expression in A549 cells after drug treatment
[3] = A549, 48 h, read-out: cell viability
[4] = A549, dose dependent MTT assay, read-out: concentration which could reduce the cell viability by 50%

Row | SMILES | necrotic cell death (A549 cell line [1]) | viability at 10 µM (A549 cell line [2]; [3]) | IC50 (A549 cell line [2]; A549, read-out: concentration which could reduce the cell viability by 50%) | effect on TTK protein level (TTK) | necrotic cell death (A549 cell line [1]; A549, 10µM, lysis positive control 100%, untreated 0%) | IC50 (A549 cell line [2]; [4]) | protein level of MCM6 (MCM6; A549, 10µM) | cytotoxicity at 0.1 µM (A549 cell line [1]; Homo sapiens, A549, 48 h, read-out: necrotic cell death) | viability at 0.1 µM (A549 cell line [2]; [3]) | protein level of MCM6 (MCM6; A549, 100nM)
1 | COC[C@H]1OC(=O)c2coc3c2[C@@]1(C)C1=C(C3=O)[C@@H]2CCC(=O)[C@@]2(C)C[C@H]1OC(C)=O [wortmannin] | did not induce necrotic cell death | 62.3% | 10 µM | – | – | – | – | – | – | –
2 | OCCCNc1cc(-c2ccnc(Nc3cccc(Cl)c3)n2)ccn1 [CGP-60474] | – | 29.1% | – | showed an inhibitory effect on TTK | did not induce necrotic cell death | 10 µM | significantly reduced | – | – | –
3 | O=C1c2c(O)ccc(O)c2C(=O)c2c(NCCNCCO)ccc(NCCNCCO)c21 [mitoxantrone] | – | – | – | – | – | 0.1 µM | – | 3.45% | 52.2% | significantly reduced

From patent EP4427750A1, “TREATMENT OF LUNG ADENOCARCINOMA” (priority 2023, dated 2024)
